Among the data in patent US7879838B2, “Heteroaryl substituted pyrazinyl-piperazine-piperidines with CXCR3 antagonist activity” (Schering Corporation, priority 2005, dated 2011) are IC50 values, retold here.

A value given as a limit tells only on which side of the number the result lay.

This experiment deals with T1, Human CXCR3 (N-delta 4) (Homo sapiens, UniProt P49682).
T1 construct: CD8 leader (N); Flag tag; expressed in transfected cells; membranes prepared
T1 sequence (P49682 5-368 limits assumed): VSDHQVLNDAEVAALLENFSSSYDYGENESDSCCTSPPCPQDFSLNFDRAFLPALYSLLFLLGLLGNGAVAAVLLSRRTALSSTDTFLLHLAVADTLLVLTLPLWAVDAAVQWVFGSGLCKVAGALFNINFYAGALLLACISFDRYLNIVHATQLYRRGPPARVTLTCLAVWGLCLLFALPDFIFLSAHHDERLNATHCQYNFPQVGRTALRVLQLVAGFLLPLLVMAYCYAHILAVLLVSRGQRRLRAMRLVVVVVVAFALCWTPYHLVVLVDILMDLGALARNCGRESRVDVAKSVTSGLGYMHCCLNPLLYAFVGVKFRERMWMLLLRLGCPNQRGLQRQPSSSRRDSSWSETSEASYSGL
In words: Human CXCR3 (N-delta 4) scintillation proximity assay (SPA), [125I] IP-10 binding to Ba/F3-hCXCR3 membranes. Particulars: IC50 rating; 25 pM [125I] IP-10, membranes of Ba/F3 cells expressing human CXCR3 (N-delta 4). The gist of the method: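 Membranes from Ba/F3 pro-B cells stably expressing Flag-tagged hCXCR3 (N-delta 4), 2 μg per point, prebound 1 hr to WGA SPA beads in HEPES buffer with CaCl2, MgCl2, NaCl, 1.0% BSA. Competition with 25 pM [125I] IP-10 and titrated compounds, 3 hr at room temperature; bound radioligand counted; […].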
(SPA uses beads or plates that emit light when radiolabelled molecules are held near them.)

By IC50 is commonly meant the concentration that gives 50% inhibition. Lower therefore signals inhibition by little substance. On to `CC[C@H]1CN(c2nc(N)c(C(=O)NC)nc2Cl)CCN1C1CCN(C(=O)c2cc(Cl)nc(Cl)c2)CC1` [compound 116], for which the IC50 was greater than 100 nM.

For `CC[C@H]1CN(c2nc(N)c(C(=O)NCCO)nc2Cl)CCN1C1CCN(C(=O)c2nccnc2N)CC1` [compound 117], the IC50 was greater than 100 nM.

On to `CC[C@H]1CN(c2ncc(C(=O)NC(C)C)nc2Cl)CCN1C1CCN(C(=O)c2ccc(Cl)nc2N)CC1` [compound 118], for which the IC50 is less than 25 nM.

In the case of `CC[C@H]1CN(c2ncc(C(=O)NC3CC3)nc2Cl)CCN1C1CCN(C(=O)c2ccc(Cl)nc2N)CC1` [compound 119], the IC50 was less than 25 nM.

Compound `CC[C@H]1CN(c2ncc(C(=O)NC(C)(C)C)nc2Cl)CCN1C1CCN(C(=O)c2ccc(Cl)nc2N)CC1` [compound 120] had an IC50 of less than 25 nM.

On to `CC[C@H]1CN(c2ncc(C(N)=O)nc2C(F)(F)F)CCN1C1CCN(C(=O)c2ccc(Cl)nc2N)CC1` [compound 121], for which the IC50 was less than 25 nM.

In turn, `CC[C@H]1CN(c2ncc(C(=O)NC)nc2Cl)CCN1C1CCN(C(=O)c2ccc(Cl)nc2N)CC1` [compound 122] returned an IC50 of less than 25 nM.

In turn, `CC[C@H]1CN(c2ncc(C(=O)NC(C)C)nc2C)CCN1C1CCN(C(=O)c2ccc(Cl)nc2N)CC1` [compound 123] displayed an IC50 of less than 25 nM.

On to `CC[C@H]1CN(c2ncc(C(=O)NCCO)nc2C)CCN1C1CCN(C(=O)c2ccc(Cl)nc2N)CC1` [compound 124], for which the IC50 was less than 25 nM.

In the case of `CC[C@H]1CN(c2ncc(C(=O)NCCO)nc2Cl)CCN1C1CCN(C(=O)c2ccc(Cl)nc2N)CC1` [compound 125], the IC50 was less than 25 nM.

Compound `CCNC(=O)c1cnc(N2CCN(C3CCN(C(=O)c4ccc(Cl)nc4N)CC3)[C@@H](CC)C2)c(C)n1` [compound 126] had an IC50 of less than 25 nM.

In turn, `CC[C@H]1CN(c2ncc(C(N)=O)nc2C)[C@H](C)CN1C1CCN(C(=O)c2ccc(Cl)nc2N)CC1` [compound 128] registered an IC50 of less than 25 nM.

Regarding `CC[C@H]1CN(c2ncc(C(N)=O)nc2C)CCN1C1CCN(C(=O)c2ccc(Cl)nc2N)CC1` [compound 129], the IC50 is less than 25 nM.

Turning to `CC[C@H]1CN(c2nc(N)c(C(=O)Nc3ccncc3)nc2Cl)CCN1C1CCN(C(=O)c2ccc(Cl)nc2N)CC1` [compound 130], the IC50 was less than 25 nM.

Consider `CC[C@H]1CN(c2nc(N)c(C(=O)NC)nc2Cl)CCN1C1CCN(C(=O)c2ccc(OC)nc2N)CC1` [compound 131], for which the IC50 fell in the range of 25 to 100 nM.

`CC[C@H]1CN(c2nc(N)c(C(=O)Nc3cc(C)[nH]n3)nc2Cl)CCN1C1CCN(C(=O)c2ccc(Cl)nc2N)CC1` [compound 132] yielded an IC50 of 25 to 100 nM.

Turning to `CC[C@H]1CN(c2nc(N)c(C(=O)NCCO)nc2Cl)CCN1C1CCN(C(=O)c2ccc(OC)nc2N)CC1` [compound 133], the IC50 was in the range of 25 to 100 nM.

Turning to `CC[C@H]1CN(c2nc(N)c(C(=O)NNC(C)=O)nc2Cl)CCN1C1CCN(C(=O)c2ccc(Cl)nc2N)CC1` [compound 134], the IC50 is 25 to 100 nM.

For the compound `CC[C@H]1CN(c2nc(N)c(C(N)=O)nc2Cl)CCN1C1CCN(C(=O)c2ccc(OC)nc2N)CC1` [compound 135], the IC50 was 25 to 100 nM.

As to `CC[C@H]1CN(c2ncc(C(N)=O)nc2C)CCN1C1CCN(C(=O)c2ccc(C)nc2N)CC1` [compound 136], the IC50 is greater than 100 nM.

`CC[C@H]1CN(c2nc(N)c(C(=O)N(C)OC)nc2Cl)CCN1C1CCN(C(=O)c2ccc(Cl)nc2N)CC1` [compound 137] yielded an IC50 greater than 100 nM.

`CC[C@H]1CN(c2nc(N)c(C(=O)NCCO)nc2Cl)CCN1C1CCN(C(=O)c2ccc(C)nc2Cl)CC1` [compound 138] displayed an IC50 greater than 100 nM.

`CC[C@H]1CN(c2nc(N)c(C(=O)NC3CC3)nc2Cl)CCN1C1CCN(C(=O)c2sc(C)nc2C)CC1` [compound 139] yielded an IC50 greater than 100 nM.

Take `CC[C@H]1CN(c2nc(N)c(C(=O)NC)nc2Cl)CCN1C1CCN(Cc2coc3ccc(Cl)cc3c2=O)CC1` [compound 140]: the IC50 is less than 25 nM.

Turning to `CC[C@H]1CN(c2nc(N)c(C(=O)NC3CC3)nc2Cl)CCN1C1CCN(Cc2cc(-c3ccccc3)oc2C)CC1` [compound 141], the IC50 is less than 25 nM.

Compound `CC[C@H]1CN(c2nc(N)c(C(N)=O)nc2Cl)CCN1C1CCN(Cc2ccc(Cl)c3nc(C(F)(F)F)[nH]c23)CC1` [compound 142] displayed an IC50 greater than 100 nM.

In the case of `CC[C@H]1CN(c2nc(N)c(C(N)=O)nc2Cl)CCN1C1CCN(Cc2ccc(Cl)c3[nH]c(=O)[nH]c23)CC1` [compound 143], the IC50 is greater than 100 nM.

In turn, `CC[C@H]1CN(c2nc(N)c(C(=O)NC)nc2Cl)CCN1C1CCN(Cc2coc3cc(C)c(Cl)cc3c2=O)CC1` [compound 144] displayed a half-maximal inhibitory concentration (IC50) of less than 25 nM.

Turning to `CC[C@H]1CN(c2nc(N)c(C(=O)NC3CC3)nc2Cl)CCN1C1CCN(Cc2cnc(-c3ccccc3)nc2C)CC1` [compound 145], the IC50 was greater than 100 nM.

Take `CC[C@H]1CN(c2nc(N)c(C(N)=O)nc2Cl)CCN1C1CCN(C2OC(C(=O)N(C)C)c3cc(Cl)ccc32)CC1` (stereo partly shown) [compound 147]: the IC50 was in the range of 25 to 100 nM.

Take `CC[C@H]1CN(c2nc(N)c(C(=O)NCCO)nc2Cl)CCN1C1CCN(C2CCOc3cc(C#N)ccc32)CC1` (stereo partly shown) [compound 148]: the IC50 is greater than 100 nM.

As to `CC[C@H]1CN(c2nc(N)c(C(=O)Nc3ccc(Cl)cc3)nc2Cl)CCN1C1CCN(C(=O)c2ccc(Cl)nc2N)CC1` [compound 149], the IC50 is less than 25 nM.

Regarding `CC[C@H]1CN(c2nc(N)c(C(N)=O)nc2Cl)CCN1C1CCN(C2OC(C(=O)N(C)C)c3cc(Cl)ccc32)CC1` (stereo partly shown) [compound 151], the IC50 lay in the range of 25 to 100 nM.

The compound `CC[C@H]1CN(c2nc(N)c(C(N)=O)nc2Cl)CCN1C1CCN(C(=O)c2ccc(Cl)c3cc[nH]c23)CC1` [compound 152] came in with an IC50 greater than 100 nM.

`CC[C@H]1CN(c2nc(N)c(C(N)=O)nc2Cl)CCN1C1CCN(Cc2ccc(Cl)c3nn[nH]c23)CC1` [compound 153] displayed an IC50 greater than 100 nM.

Regarding `CC[C@H]1CN(c2ncc(C(=O)NC3CC3)nc2C)[C@H](C)CN1C1CCN(C(=O)c2ccc(Cl)nc2N)CC1` [compound 159], the IC50 is less than 25 nM.

In turn, `CCNC(=O)c1cnc(N2C[C@H](CC)N(C3CCN(C(=O)c4ccc(Cl)nc4N)CC3)C[C@H]2C)c(C)n1` [compound 160] came in with a half-maximal inhibitory concentration (IC50) of less than 25 nM.

As for `CC[C@H]1CN(c2ncc(C(=O)OC)nc2C)CCN1C1CCN(C(=O)c2ccc(Cl)nc2N)CC1` [compound 161], the IC50 was less than 25 nM.

Consider `CC[C@H]1CN(c2nc(N)c(C(N)=O)nc2C)CCN1C1CCN(C(=O)c2ccc(Cl)nc2N)CC1` [compound 162], for which the IC50 is less than 25 nM.

Compound `CC[C@H]1CN(c2ncc(C(=O)NC)nc2C)[C@H](C)CN1C1CCN(C(=O)c2ccc(Cl)nc2N)CC1` [compound 163] showed an IC50 of less than 25 nM.

`CC[C@H]1CN(c2ncc(C(=O)OC)nc2C)[C@H](C)CN1C1CCN(C(=O)c2ccc(Cl)nc2N)CC1` [compound 164] returned an IC50 of less than 25 nM.

On to `CC[C@H]1CN(c2ncc(C(N)=O)nc2C)CCN1C1CCN(C(=O)c2ccc(C(F)(F)F)nc2N)CC1` [compound 165], for which the IC50 is 25 to 100 nM.

`CC[C@H]1CN(c2nc(N)c(C(N)=O)nc2Cl)[C@H](C)CN1C1CCN(C(=O)c2ccc(Cl)nc2N)CC1` [compound 167] had an IC50 of less than 25 nM.

For the compound `CC[C@H]1CN(c2ncc(C(=O)NC(C)(C)C)nc2C)CCN1C1CCN(C(=O)c2ccc(Cl)nc2N)CC1` [compound 170], the IC50 is less than 25 nM.

`CC[C@H]1CN(c2nc(N)c(C(=O)NCCO)nc2C)CCN1C1CCN(C(=O)c2ccc(Cl)nc2N)CC1` [compound 171] showed an IC50 of less than 25 nM.

As to `CC[C@H]1CN(c2nc(N)c(C(=O)OC)nc2Cl)[C@H](C)CN1C1CCN(C(=O)c2ccc(Cl)nc2N)CC1` [compound 172], the IC50 is less than 25 nM.

In turn, `CC[C@H]1CN(c2ncc(C(=O)NC)nc2C(F)(F)F)CCN1C1CCN(C(=O)c2ccc(Cl)nc2N)CC1` [compound 173] returned an IC50 of less than 25 nM.

In turn, `CC[C@H]1CN(c2ncc(C(=O)NC3(C)CC3)nc2C)[C@H](C)CN1C1CCN(C(=O)c2ccc(Cl)nc2N)CC1` [compound 174] displayed a half-maximal inhibitory concentration (IC50) of less than 25 nM.

Consider `CC[C@H]1CN(c2nc(N)c(C(=O)NC3CC3)nc2C)[C@H](C)CN1C1CCN(C(=O)c2ccc(Cl)nc2N)CC1` [compound 175], for which the IC50 was less than 25 nM.

Turning to `CC[C@H]1CN(c2ncc(C(=O)NC3CC3)nc2C)CCN1C1CCN(C(=O)c2ccc(C(F)(F)F)nc2N)CC1` [compound 176], the IC50 was less than 25 nM.

`CC[C@H]1CN(c2nc(N)c(C(=O)NC3CC3)nc2Cl)[C@H](C)CN1C1CCN(C(=O)c2ccc(Cl)nc2N)CC1` [compound 177] displayed an IC50 of less than 25 nM.

Compound `CC[C@H]1CN(c2ncc(C(=O)NC3CC3)nc2C(F)(F)F)CCN1C1CCN(C(=O)c2ccc(Cl)nc2N)CC1` [compound 178] displayed an IC50 of less than 25 nM.

For `CC[C@H]1CN(c2ncc(C(=O)NC(C)C)nc2C(F)(F)F)CCN1C1CCN(C(=O)c2ccc(Cl)nc2N)CC1` [compound 179], the IC50 was less than 25 nM.

In turn, `CC[C@H]1CN(c2ncc(C(=O)NCCO)nc2C(F)(F)F)CCN1C1CCN(C(=O)c2ccc(Cl)nc2N)CC1` [compound 180] registered an IC50 of less than 25 nM.

For the compound `CC[C@H]1CN(c2ncc(C(=O)NC3CCC3)nc2C(F)(F)F)CCN1C1CCN(C(=O)c2ccc(Cl)nc2N)CC1` [compound 181], the IC50 is less than 25 nM.
